We go through three compounds from the NIST ThermoML archive (doi:10.1021/acs.jced.6b00158).

The structures appear in SMILES notation. ± gives the expanded uncertainty stated by the source.

For data set [1] the following is noted: 100 kPa, Liquid; for viscosity: Falling or rolling sphere viscometry; for mass density: Vibrating tube method.
The nature of data set [2]: xn = mol fraction of the nth substance listed. Particulars: 100 kPa, Liquid, x1 = 1; for viscosity: Falling or rolling sphere viscometry; for mass density: Vibrating tube method.

The viscosity is the resistance of a fluid to flow. The term mass density denotes mass per unit of volume. For the compound `CC(C)CO` [2-methyl-1-propanol], the viscosity in data set [1] (293.15 K) is reported as 4.023 ± 0.069 mPa·s; in data set [1] (298.15 K), 3.404 ± 0.067 mPa·s; in data set [1] (303.15 K) it was 2.882 ± 0.065 mPa·s; in data set [1] (308.15 K), 2.475 ± 0.064 mPa·s; in data set [1] (313.15 K), 2.097 ± 0.063 mPa·s. The mass density turned out to be 801.96 ± 2 kg/m3 in data set [1] (293.15 K); 798.12 ± 2 kg/m3 in data set [1] (298.15 K); 794.22 ± 2 kg/m3 in data set [1] (303.15 K); 790.27 ± 2 kg/m3 in data set [1] (308.15 K); 786.27 ± 2 kg/m3 in data set [1] (313.15 K).
`CC(C)CO` [2-methyl-1-propanol] + NC1CCCCC1: the viscosity in data set [2] (293.15 K) is given as 4.023 ± 0.069 mPa·s; in data set [2] (298.15 K), 3.404 ± 0.067 mPa·s; in data set [2] (303.15 K), 2.882 ± 0.065 mPa·s; in data set [2] (308.15 K), 2.475 ± 0.064 mPa·s; in data set [2] (313.15 K), 2.097 ± 0.063 mPa·s. Besides, the mass density in data set [2] (293.15 K) was 801.96 ± 2 kg/m3; in data set [2] (298.15 K), 798.12 ± 2 kg/m3; in data set [2] (303.15 K), 794.22 ± 2 kg/m3; in data set [2] (308.15 K), 790.27 ± 2 kg/m3; in data set [2] (313.15 K), 786.27 ± 2 kg/m3.
Consider `NC1CCCCC1` [cyclohexylamine], for which the viscosity in data set [1] (293.15 K) came out at 2.134 ± 0.063 mPa·s; in data set [1] (298.15 K), 1.944 ± 0.062 mPa·s; in data set [1] (303.15 K), 1.786 ± 0.062 mPa·s; in data set [1] (308.15 K), 1.572 ± 0.062 mPa·s; in data set [1] (313.15 K) it was 1.417 ± 0.061 mPa·s. The mass density in data set [1] (293.15 K) was 866.85 ± 2 kg/m3; in data set [1] (298.15 K), 862.31 ± 2 kg/m3; in data set [1] (303.15 K), 857.79 ± 2 kg/m3; in data set [1] (308.15 K) it was 853.24 ± 2 kg/m3; in data set [1] (313.15 K) it was 848.71 ± 2 kg/m3.
